# Test results: PubChem BioAssay (NCI)
#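 Tested at 5 concentrations; 48 h exposure; 96-well plates; endpoints linearly interpolated, else capped at highest concentration. Abbreviation: GI50, concentration required for 50% inhibition of growth. TGI: total growth inhibition.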
# Experiments:
# Experiment in all cases: NCI anticancer screen, dose series, 48 h
# [1] = tested on: 786-0 renal
# [2] = tested on: M14 melanoma
# [3] = tested on: U251 CNS
# [4] = tested on: K-562 leukemia
# [5] = tested on: HCT-15 colon
# [6] = tested on: PC-3 prostate
# [7] = tested on: UACC-257 melanoma
# [8] = tested on: OVCAR-5 ovarian
# [9] = tested on: OVCAR-8 ovarian
# [10] = tested on: NCI-H522 lung
# [11] = tested on: CAKI-1 renal
# [12] = tested on: NCI-H226 lung
# [13] = tested on: LOX IMVI melanoma
# [14] = tested on: KM12 colon
# [15] = tested on: A549 NSCLC
# [16] = tested on: MDA-MB-435
# [17] = tested on: EKVX NSCLC
# [18] = tested on: SF-295 CNS
# [19] = tested on: SK-OV-3 ovarian
# [20] = tested on: COLO 205 colon
# [21] = tested on: MCF7 breast
# [22] = tested on: OVCAR-3 ovarian
# [23] = tested on: UACC-62 melanoma
# [24] = tested on: NCI-H460 lung
# [25] = tested on: UO-31 renal
# [26] = tested on: CCRF-CEM leukemia
# [27] = tested on: HOP-92 NSCLC
# [28] = tested on: DU-145 prostate
# [29] = tested on: SR leukemia
# [30] = tested on: OVCAR-4 ovarian
# [31] = tested on: SK-MEL-2 melanoma
# [32] = tested on: SW-620 colon
# [33] = tested on: T-47D breast
# [34] = tested on: SNB-19 CNS
# [35] = tested on: HCC-2998 colon
# [36] = tested on: TK-10 renal
# [37] = tested on: NCI/ADR-RES ovarian
# [38] = tested on: SF-539 CNS
# [39] = tested on: HT29 colon
# [40] = tested on: MDA-MB-231 breast
# [41] = tested on: MOLT-4 leukemia
# [42] = tested on: SK-MEL-28 melanoma
# [43] = tested on: ACHN renal
# [44] = tested on: SNB-75 CNS
# [45] = tested on: A498 renal
# [46] = tested on: RPMI-8226 leukemia
# [47] = tested on: SF-268 CNS
# [48] = tested on: MALME-3M melanoma
# [49] = tested on: HS 578T breast
# [50] = tested on: SN12C renal
# [51] = tested on: NCI-H23 lung
# [52] = tested on: BT-549 breast
# [53] = tested on: HOP-62 NSCLC
# [54] = tested on: RXF 393 renal
# [55] = tested on: SK-MEL-5 melanoma
# [56] = tested on: IGROV1 ovarian
structure (smiles),measurement,setting,value
COc1cc(/C=N/NC(=O)c2cnn3c2NC(c2ccccc2)C3)ccc1Oc1ccccc1 (configuration not stated),GI50,[1],1.19 µM
same,TGI,[1],5.65 µM
same,GI50,[2],0.761 µM
same,TGI,[2],10.7 µM
same,GI50,[3],1.31 µM
same,TGI,[3],3.59 µM
same,GI50,[4],0.571 µM
same,TGI,[4],18.6 µM
same,GI50,[5],0.559 µM
same,TGI,[5],3.15 µM
same,GI50,[6],0.875 µM
same,TGI,[6],3.59 µM
same,GI50,[7],2.91 µM
same,TGI,[7],15.6 µM
same,GI50,[8],2.34 µM
same,TGI,[8],11.9 µM
same,GI50,[9],2.57 µM
same,TGI,[9],12.2 µM
same,GI50,[10],0.366 µM
same,TGI,[10],2.62 µM
same,GI50,[11],0.996 µM
same,TGI,[11],10.2 µM
same,GI50,[12],2.17 µM
same,TGI,[12],7.95 µM
same,GI50,[13],0.736 µM
same,TGI,[13],2.36 µM
same,GI50,[14],0.528 µM
same,TGI,[14],3 µM
same,GI50,[15],1.5 µM
same,TGI,[15],5 µM
same,GI50,[16],0.293 µM
same,TGI,[16],1.43 µM
same,GI50,[17],2.03 µM
same,TGI,[17],14.3 µM
same,GI50,[18],0.522 µM
same,TGI,[18],2.08 µM
same,GI50,[19],1.47 µM
same,TGI,[19],10.6 µM
same,GI50,[20],0.819 µM
same,TGI,[20],6.97 µM
same,GI50,[21],0.436 µM
same,TGI,[21],10.2 µM
same,GI50,[22],0.346 µM
same,TGI,[22],1.31 µM
same,GI50,[23],0.888 µM
same,TGI,[23],7.3 µM
same,GI50,[24],0.875 µM
same,TGI,[24],2.83 µM
same,GI50,[25],1.69 µM
same,TGI,[25],12.2 µM
same,GI50,[26],1.43 µM
same,TGI,[26],> 100 µM
same,GI50,[27],2.06 µM
same,TGI,[27],8.58 µM
same,GI50,[28],1.42 µM
same,TGI,[28],4.84 µM
same,GI50,[29],0.488 µM
same,TGI,[29],10 µM
same,GI50,[30],1.41 µM
same,TGI,[30],3.78 µM
same,GI50,[31],1.14 µM
same,TGI,[31],4.89 µM
same,GI50,[32],0.868 µM
same,TGI,[32],10.1 µM
same,GI50,[33],0.998 µM
same,TGI,[33],16.9 µM
same,GI50,[34],1.43 µM
same,TGI,[34],8.31 µM
same,GI50,[35],3.6 µM
same,TGI,[35],30 µM
same,GI50,[36],2.62 µM
same,TGI,[36],11.5 µM
same,GI50,[37],1.73 µM
same,TGI,[37],9.59 µM
same,GI50,[38],1.03 µM
same,TGI,[38],2.51 µM
same,GI50,[39],0.432 µM
same,TGI,[39],1.76 µM
same,GI50,[40],1.66 µM
same,TGI,[40],5.03 µM
same,GI50,[41],1.99 µM
same,TGI,[41],20.4 µM
same,GI50,[42],1.38 µM
same,TGI,[42],6.94 µM
same,GI50,[43],1.33 µM
same,TGI,[43],7.31 µM
same,GI50,[44],1.3 µM
same,TGI,[44],3.41 µM
same,GI50,[45],1.18 µM
same,TGI,[45],7.03 µM
same,GI50,[46],2.83 µM
same,TGI,[46],31.4 µM
same,GI50,[47],2.46 µM
same,TGI,[47],14.6 µM
same,GI50,[48],1.21 µM
same,TGI,[48],5.26 µM
same,GI50,[49],1.65 µM
same,TGI,[49],5.22 µM
same,GI50,[50],1.78 µM
same,TGI,[50],4.22 µM
same,GI50,[51],1.63 µM
same,TGI,[51],10.8 µM
same,GI50,[52],0.864 µM
same,TGI,[52],3.16 µM
same,GI50,[53],1.18 µM
same,TGI,[53],4.34 µM
same,GI50,[54],1.5 µM
same,TGI,[54],4.53 µM
same,GI50,[55],0.734 µM
same,TGI,[55],3.94 µM
same,GI50,[56],1.36 µM
same,TGI,[56],10.8 µM
